Laboratory results reported in patent US20160201132A1, “GENE EXPRESSION BIOMARKERS OF LAQUINIMOD RESPONSIVENESS” (Teva Pharmaceutical Industries Ltd., priority 2013, published 2016).

Columns and labels:
PAI-1 (Serpine 1) = assay: Western blot verification of PAI-1 (Serpine 1) protein in PBMC of LAQ-treated patients; assay type: in vivo, human; conditions: four out of five patients, after 6 months of LAQ treatment
Procedure: FIG. 6: Expression of PAI-1 (Serpine 1) in PBMCs of patients following treatment with LAQ. Protein samples were prepared from phenol/ethanol fractions of PBMCs derived from patients after 6 month of LAQ treatment (+) and compare to PBMCs samples of the same patients before treatment (−) (A). From each sample […] was separated on 10% SDS-PAGE. Blots were incubated with Rabbit a-PAI-1 (1:500) and mouse Tubulin (1:500). The signal intensities of a protein band and its surrounding background were scanned for each protein and quantified by using Quantity One 4.6.9 software. The resultant background-subtracted values of protein expression were normalized to those of Tubulin and then plotted as the relative protein levels for each patient with or without LAQ treatment (B).
For verification of key genes on protein level Western blot analysis was performed. Supernatant was collected and protein concentration was determined using a Bradford assay (Pierce, Rockford, Ill., USA) according the manufacturer's guidelines. Equal amounts of protein were suspended in sample buffer and boiled for 5 min. Cell lysates were resolved on 10% SDS-polyacrylamide gel electrophoresis (PAGE). […] The blots were then washed three times with TBST buffer and analyzed by standard chemiluminescence (Supersignal Kit, Pierce, Rockford, Ill., USA) according to the company's protocol.

TGFB1 = assay: Western blot verification of TGFB1 (TGFb) protein in PBMC of LAQ-treated RRMS patients; assay type: in vivo, human
Procedure: FIG. 5: Expression of TGFB1 in PBMCs of RRMS patients following treatment with LAQ. Protein samples ([…]) were prepared from phenol/ethanol fractions of PBMCs derived from patients after 6 month of LAQ treatment (+) and compared to PBMCs samples of the same patients before treatment (−) (FIGS. 5A and 5C). From each sample 30 ug was separated on 10% SDS-PAGE. Blots were incubated with Rabbit a-TGFb1 (1:250) and mouse Tubulin (1:500). The signal intensities of a protein band and its surrounding background were scanned for each protein and quantified by using Quantity One 4.6.9 software (Bio-Rad Laboratories, Hercules, Calif.). […] The signal intensity of a protein bands were quantified by Quantity One 4.6.9 software. The resultant background-subtracted values of protein expression were normalized to those of Tubulin and then calculated as the relative protein levels for each patient before or after LAQ treatment. The blot images in A, B and C are representative of two out of five analyzed patients showing down regulation of TGFb, ITGB1 and CXCR1, respectively as also quantified by densitometry of bands analyzed from five patients. […] Supernatant was collected and protein concentration was determined using a Bradford assay (Pierce, Rockford, Ill., USA) according the manufacturer's guidelines. […]

RRMS patients = conditions: 106 RRMS patients vs 102 placebo treated RRMS patients; cited from earlier work
CXCR1 = assay: Western blot verification of CXCR1 protein in PBMC of LAQ-treated RRMS patients; assay type: in vivo, human; conditions: six months of LAQ treatment vs baseline, n=5
Procedure: (§1) FIG. 10: Expression of TGFb, ITGB1 and CXCR1 in RRMS patients treated with LAQ. Protein extracts were prepared from PBMCs samples derived from RRMS patients before treatment (black bars) and compared to PBMCs samples of the same patients after six months of LAQ treatment (white bars). The signal intensity of a protein bands were quantified by Quantity One 4.6.9 software. The resultant background-subtracted values of protein expression were normalized to those of Tubulin and then calculated as the relative protein levels for each patient before or after LAQ treatment. The blot images in A, B and C are representative of two out of five analyzed patients showing down regulation of TGFb, ITGB1 and CXCR1, respectively as also quantified by densitometry of bands analyzed from five patients. Data are presented as mean±SEM. Statistically significant differences are marked in graphs (n=5, paired one-tailed t-test). Protein fractions were purified from PBMC of 5 patients at baseline and after six months of LAQ treatment. Proteins were extracted from TRIZOL fractions and solubilized following the method reported by Hummon et al., 2007 (Hummon et al., 2007). […] Blots were analyzed by standard chemi-luminescence (Supersignal Kit, Pierce, Rockford, Ill., USA) and visualization was done by ChemiDoc™ XRS System (Bio-Rad).

ITGB1 = assay: Western blot verification of ITGB1 protein in PBMC of LAQ-treated RRMS patients; assay type: in vivo, human; conditions: six months of LAQ treatment vs baseline, n=5
Procedure: as §1

CCN(C(=O)c1c(O)c2c(Cl)cccc2n(C)c1=O)c1ccccc1 [LAQ, 5-chloro-N-ethyl-4-hydroxy-1-methyl-2-oxo-N-phenyl-1,2-dihydroquinoline-3-carboxamide]
reduced expression of PAI-1 protein (band intensities normalized against tubulin) (PAI-1 (Serpine 1)): 30-50%
down-regulation of TGFB1 protein level (band intensities normalized against Tubulin) (TGFB1; four out of five patients, 6 months of LAQ treatment vs before treatment): 20-50%
TGFb protein suppressed by (quantification of bands intensities) (TGFB1; six months of LAQ treatment vs baseline, n=5): 69.0%
reduction in the cumulative number of gadolinium enhanced lesions in brain MRI (RRMS patients): about 40%
down regulation of CXCR1 protein (CXCR1): 24.7%
down regulation of ITGB1 protein (ITGB1): 40%
